Values after ≈ are worked out from the molar mass of the structure shown. Active and inactive are the calls of the source. No cut-off for these calls is given here.
What was measured:
[1] = target: T1, Interleukin-1 receptor-associated kinase 4 (Homo sapiens, UniProt Q9NWZ3); experiment: Inhibition of IRAK4-mediated NFkappaB activation in human THP1-XBlue cells assessed as LPS-induced secreted embryonic alkaline phosphatase activity treated 1 hr before LPS challenge measured after 5 hrs by spectrophotometer analysis; format: cell-based, THP-1
T1 sequence (Q9NWZ3 whole entry): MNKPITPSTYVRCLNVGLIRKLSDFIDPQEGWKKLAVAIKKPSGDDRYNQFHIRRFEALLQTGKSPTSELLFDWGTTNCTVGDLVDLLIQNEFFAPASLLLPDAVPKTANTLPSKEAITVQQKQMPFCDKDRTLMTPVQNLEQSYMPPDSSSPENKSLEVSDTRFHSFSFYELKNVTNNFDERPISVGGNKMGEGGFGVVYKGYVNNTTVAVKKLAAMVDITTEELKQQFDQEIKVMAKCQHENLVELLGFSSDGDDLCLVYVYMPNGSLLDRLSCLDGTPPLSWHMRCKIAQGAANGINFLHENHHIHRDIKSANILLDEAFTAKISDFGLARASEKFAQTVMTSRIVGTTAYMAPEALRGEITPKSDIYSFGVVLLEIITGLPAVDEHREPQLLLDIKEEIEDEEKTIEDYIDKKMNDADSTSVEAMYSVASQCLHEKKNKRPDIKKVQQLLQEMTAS

[2] = Oral bioavailability in Wistar Han rat at 10 mg/kg; format: ADME, organism-based; details: in vivo
[3] = Clearance in Wistar Han rat at 1 mg/kg, iv; format: ADME, organism-based; details: in vivo
[4] = Kinetic solubility of the compound at pH 7; format: physicochemical; details: buffer
[5] = target: T1, Interleukin-1 receptor-associated kinase 4; experiment: Inhibition of IRAK4 (unknown origin) using 5FAM-RKRQGSVRRRVHCCOOH as substrate after 30 mins by IMAP assay
[6] = Apparent permeability of the compound across pig LLC-PK1 cells; format: ADME, cell-based, Sus scrofa
[7] = target: Receptor-type tyrosine-protein kinase FLT3 (Homo sapiens) (UniProt P36888); experiment: Inhibition of FLT3 (unknown origin)
Chain of Receptor-type tyrosine-protein kinase FLT3 (Homo sapiens) (P36888 whole entry): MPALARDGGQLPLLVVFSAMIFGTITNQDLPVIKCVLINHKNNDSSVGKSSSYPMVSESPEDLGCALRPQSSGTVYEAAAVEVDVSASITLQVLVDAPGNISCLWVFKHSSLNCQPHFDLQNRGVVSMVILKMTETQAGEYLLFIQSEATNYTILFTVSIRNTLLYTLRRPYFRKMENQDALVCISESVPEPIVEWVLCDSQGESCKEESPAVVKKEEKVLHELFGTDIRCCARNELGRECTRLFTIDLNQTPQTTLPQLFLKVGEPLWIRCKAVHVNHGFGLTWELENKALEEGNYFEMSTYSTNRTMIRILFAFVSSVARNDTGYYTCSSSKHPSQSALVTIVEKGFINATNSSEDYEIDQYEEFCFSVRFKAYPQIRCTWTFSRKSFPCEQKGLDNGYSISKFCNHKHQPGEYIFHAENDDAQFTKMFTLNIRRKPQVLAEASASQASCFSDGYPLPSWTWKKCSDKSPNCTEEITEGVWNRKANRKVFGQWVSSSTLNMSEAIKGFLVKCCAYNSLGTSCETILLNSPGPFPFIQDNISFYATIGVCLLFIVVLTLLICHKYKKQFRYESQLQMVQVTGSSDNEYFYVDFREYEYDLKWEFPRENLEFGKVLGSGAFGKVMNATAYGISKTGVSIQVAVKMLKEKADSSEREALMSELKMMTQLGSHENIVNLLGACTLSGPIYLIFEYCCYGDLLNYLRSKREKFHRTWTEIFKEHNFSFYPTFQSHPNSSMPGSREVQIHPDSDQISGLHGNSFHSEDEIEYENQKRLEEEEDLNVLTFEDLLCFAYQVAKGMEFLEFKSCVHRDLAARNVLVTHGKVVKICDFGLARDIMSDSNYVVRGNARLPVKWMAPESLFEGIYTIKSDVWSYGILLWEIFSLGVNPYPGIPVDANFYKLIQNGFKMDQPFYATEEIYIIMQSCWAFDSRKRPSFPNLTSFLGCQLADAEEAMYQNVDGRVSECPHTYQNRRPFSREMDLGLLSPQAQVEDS

SMILES	IC50 [1] [nM]	bioavailability [2] [%]	clearance [3] [mL/min/kg]	solubility kinetic [4] [µM]	IC50 [5] [nM]	Papp [6] [×10⁻⁶ cm/s]	inhibition [7]
C[C@@H]1CC[C@@H](Nc2nc(N3CCOCC3)[nH]c(=O)c2-c2nc3ccccc3s2)CN1	580	42	51	13 (≈ 5.55 µg/mL)	93	15	
O=c1[nH]c(N2CCOCC2)nc(N[C@@H]2CCCNC2)c1-c1nc2ccccc2s1		13	45	21 (≈ 8.66 µg/mL)		29	
O=c1[nH]c(N2CCCC2)nc(N[C@@H]2C[C@H](CO)[C@@H](O)[C@H]2O)c1-c1nc2ccccc2s1	78			26 (≈ 11.5 µg/mL)		12	
O=c1[nH]c(N2CCOCC2)nc(N[C@H]2CNC[C@H](O)C2)c1-c1nc2ccccc2s1	333	2	43	8 (≈ 3.43 µg/mL)		9	
CN(C)c1nc(N[C@@H]2C[C@H](CO)[C@@H](O)[C@H]2O)c(-c2nc3ccccc3s2)c(=O)[nH]1					490		
O=c1[nH]c(N2CCC2)nc(N[C@@H]2C[C@H](CO)[C@@H](O)[C@H]2O)c1-c1nc2ccccc2s1	292	4	75	23 (≈ 9.88 µg/mL)		18	
CCc1nc(N[C@@H]2C[C@H](CO)[C@@H](O)[C@H]2O)c(-c2nc3ccccc3s2)c(=O)[nH]1					972		
CSc1nc(N[C@@H]2C[C@H](CO)[C@@H](O)[C@H]2O)c(-c2nc3ccccc3s2)c(=O)[nH]1					352		
O=c1[nH]c(N2CCOCC2)nc(N[C@@H]2C[C@H](CO)[C@@H](O)[C@H]2O)c1-c1nc2ccccc2s1		0	98	63 (≈ 29 µg/mL)		7	
OC[C@H]1C[C@@H](Nc2nc(NC3CC3)ncc2-c2nc3ccccc3s2)[C@H](O)[C@@H]1O					470		
C[C@H]1CC[C@@H](Nc2nc(N3CCOCC3)[nH]c(=O)c2-c2nc3ccccc3s2)CN1					565		
O=c1[nH]c(N2CCc3ccccc3C2)nc(N[C@@H]2C[C@H](CO)[C@@H](O)[C@H]2O)c1-c1nc2ccccc2s1	141	0	88	12 (≈ 6.07 µg/mL)	27	5	Active
